From publication PMC7580763, “Novel insights on saccharin- and acesulfame-based carbonic anhydrase inhibitors: design, synthesis, modelling investigations and biological activity evaluation” (Journal of Enzyme Inhibition and Medicinal Chemistry, 2020)
“And” between values parts separate entries of the source, which are not always exact repeats. Equal entries are not always repeated.

These compounds were tested against hCA I (Homo sapiens, UniProt P00915) (assay: CA inhibition, stopped-flow CO2 hydrase assay, hCA I). Conditions: not given.
Format: biochemical
Protocol: (§1) An Applied Photophysics stopped-flow instrument has been used for assaying the CA-catalyzed CO2 hydration activity. […] The initial rates of the CA-catalysed CO2 hydration reaction were followed for a period of 10−100 s. The CO2 concentrations ranged from 1.7 to 17 mM for the determination of the kinetic parameters and inhibition constants. […] The uncatalyzed rates were determined in the same manner and subtracted from the total observed ones. Stock solutions of each inhibitor (0.1 mM) were prepared in distilled − deionized water and dilutions up to 0.01 nM were done thereafter with distilled − deionized water. Inhibitor and enzyme solutions were preincubated together for 15 min at room temperature prior to assay to allow for the formation of the E−I complex. The inhibition constants were obtained by nonlinear least-squares methods using the Cheng-Prusoff equation and represent the mean from at least three different determinations. […] Human CA isoforms were recombinant enzymes obtained in-house as reported earlier.

Chain of hCA I (P00915 whole entry): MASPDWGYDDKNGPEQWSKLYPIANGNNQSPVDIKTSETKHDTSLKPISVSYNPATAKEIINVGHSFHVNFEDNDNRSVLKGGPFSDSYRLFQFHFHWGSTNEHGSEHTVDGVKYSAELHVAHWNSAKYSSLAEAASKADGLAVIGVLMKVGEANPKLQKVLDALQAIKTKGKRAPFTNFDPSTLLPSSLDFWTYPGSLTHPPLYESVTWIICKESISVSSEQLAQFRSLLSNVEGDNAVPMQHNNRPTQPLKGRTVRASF

SMILES	Ki [µM]	inhibitory activity against hCA I, in words
O=C1c2ccccc2S(=O)(=O)N1Cc1cn(-c2ccccc2)nn1 [Compound 41]	> 1000	
O=C(O)c1ccccc1S(=O)(=O)NCc1cn(-c2ccccc2)nn1 [Compound 47]		ineffective
Cc1ccc(-n2cc(CNS(=O)(=O)c3ccccc3C(=O)O)nn2)cc1 [Compound 48]		ineffective

Same assay, conditions: Table 1, saccharin-based derivatives; recombinant enzyme, 15 min preincubation, pH 7.5

SMILES	Ki [µM]
CC(C)c1ccc(N2C(=O)c3ccccc3S2(=O)=O)cc1 [Compound 39]	> 1000
COc1ccc(N2C(=O)c3ccccc3S2(=O)=O)cc1 [Compound 40]	> 1000
O=C1c2ccccc2S(=O)(=O)N1Cc1cn(-c2ccccc2)nn1 [Compound 41]	> 1000
O=C1c2ccccc2S(=O)(=O)N1Cc1cn(-c2ccc(Cl)cc2)nn1 [Compound 42]	> 1000
O=C1c2ccccc2S(=O)(=O)N1Cc1cn(-c2ccc(Br)cc2)nn1 [Compound 43]	> 1000
Cc1ccc(-n2cc(CN3C(=O)c4ccccc4S3(=O)=O)nn2)cc1 [Compound 44]	> 1000
COc1ccc(-n2cc(CN3C(=O)c4ccccc4S3(=O)=O)nn2)cc1 [Compound 45]	> 1000
O=C1c2ccccc2S(=O)(=O)N1Cc1cn(Cc2ccccc2)nn1 [Compound 46]	> 100
O=C(O)c1ccccc1S(=O)(=O)NCc1cn(-c2ccccc2)nn1 [Compound 47]	> 1000
Cc1ccc(-n2cc(CNS(=O)(=O)c3ccccc3C(=O)O)nn2)cc1 [Compound 48]	> 1000
O=C(O)c1ccccc1S(=O)(=O)NCc1cn(Cc2ccccc2)nn1 [Compound 49]	> 100

Same assay, conditions: Table 2, acesulfame-based derivatives; mean from 3 different assays, errors ± 5–10%

SMILES	Ki [µM]
CC(C)=CCN1C(=O)C=C(C)OS1(=O)=O [Compound 50]	> 1000
CC1=CC(=O)N(Cc2ccccc2)S(=O)(=O)O1 [Compound 51]	> 1000
CC1=CC(=O)N(Cc2ccc(Cl)c(Cl)c2)S(=O)(=O)O1 [Compound 52]	> 1000
CC1=CC(=O)N(Cc2cn(-c3ccccc3)nn2)S(=O)(=O)O1 [Compound 53]	> 1000
CC1=CC(=O)N(Cc2cn(-c3ccc(Cl)cc3)nn2)S(=O)(=O)O1 [Compound 54]	> 1000
CC1=CC(OCc2cn(-c3ccccc3)nn2)=NS(=O)(=O)O1 [Compound 55]	> 1000
CC1=CC(OCc2cn(-c3ccc(C)cc3)nn2)=NS(=O)(=O)O1 [Compound 56]	> 1000
CC1=CC(OCc2cn(-c3ccc(Cl)cc3)nn2)=NS(=O)(=O)O1 [Compound 57]	> 1000
CC1=CC(OCc2cn(-c3ccc(Br)cc3)nn2)=NS(=O)(=O)O1 [Compound 58]	> 1000
COc1ccc(-n2cc(COC3=NS(=O)(=O)OC(C)=C3)nn2)cc1 [Compound 59]	> 1000
CC1=CC(OCc2cn(Cc3ccccc3)nn2)=NS(=O)(=O)O1 [Compound 60]	> 100

What follows are compounds tested against hCA II (Homo sapiens, UniProt P00918) (assay: CA inhibition, stopped-flow CO2 hydrase assay, hCA II). Conditions: not given.
Format: biochemical
Protocol: as §1

SMILES	Ki [µM]	inhibitory activity against hCA II, in words
O=C1c2ccccc2S(=O)(=O)N1Cc1cn(-c2ccccc2)nn1 [Compound 41]	> 1000	
O=C(O)c1ccccc1S(=O)(=O)NCc1cn(-c2ccccc2)nn1 [Compound 47]		ineffective
Cc1ccc(-n2cc(CNS(=O)(=O)c3ccccc3C(=O)O)nn2)cc1 [Compound 48]		ineffective

Same assay, conditions: Table 1, saccharin-based derivatives; recombinant enzyme, 15 min preincubation, pH 7.5

SMILES	Ki [µM]
CC(C)c1ccc(N2C(=O)c3ccccc3S2(=O)=O)cc1 [Compound 39]	> 1000
COc1ccc(N2C(=O)c3ccccc3S2(=O)=O)cc1 [Compound 40]	> 1000
O=C1c2ccccc2S(=O)(=O)N1Cc1cn(-c2ccccc2)nn1 [Compound 41]	> 1000
O=C1c2ccccc2S(=O)(=O)N1Cc1cn(-c2ccc(Cl)cc2)nn1 [Compound 42]	80.8
O=C1c2ccccc2S(=O)(=O)N1Cc1cn(-c2ccc(Br)cc2)nn1 [Compound 43]	76.4
Cc1ccc(-n2cc(CN3C(=O)c4ccccc4S3(=O)=O)nn2)cc1 [Compound 44]	> 1000
COc1ccc(-n2cc(CN3C(=O)c4ccccc4S3(=O)=O)nn2)cc1 [Compound 45]	> 1000
O=C1c2ccccc2S(=O)(=O)N1Cc1cn(Cc2ccccc2)nn1 [Compound 46]	> 100
O=C(O)c1ccccc1S(=O)(=O)NCc1cn(-c2ccccc2)nn1 [Compound 47]	> 1000
Cc1ccc(-n2cc(CNS(=O)(=O)c3ccccc3C(=O)O)nn2)cc1 [Compound 48]	> 1000
O=C(O)c1ccccc1S(=O)(=O)NCc1cn(Cc2ccccc2)nn1 [Compound 49]	> 100

Same assay, conditions: Table 2, acesulfame-based derivatives; mean from 3 different assays, errors ± 5–10%

SMILES	Ki [µM]
CC(C)=CCN1C(=O)C=C(C)OS1(=O)=O [Compound 50]	> 1000
CC1=CC(=O)N(Cc2ccccc2)S(=O)(=O)O1 [Compound 51]	> 1000
CC1=CC(=O)N(Cc2ccc(Cl)c(Cl)c2)S(=O)(=O)O1 [Compound 52]	> 1000
CC1=CC(=O)N(Cc2cn(-c3ccccc3)nn2)S(=O)(=O)O1 [Compound 53]	> 1000
CC1=CC(=O)N(Cc2cn(-c3ccc(Cl)cc3)nn2)S(=O)(=O)O1 [Compound 54]	> 1000
CC1=CC(OCc2cn(-c3ccccc3)nn2)=NS(=O)(=O)O1 [Compound 55]	> 1000
CC1=CC(OCc2cn(-c3ccc(C)cc3)nn2)=NS(=O)(=O)O1 [Compound 56]	> 1000
CC1=CC(OCc2cn(-c3ccc(Cl)cc3)nn2)=NS(=O)(=O)O1 [Compound 57]	> 1000
CC1=CC(OCc2cn(-c3ccc(Br)cc3)nn2)=NS(=O)(=O)O1 [Compound 58]	> 1000
COc1ccc(-n2cc(COC3=NS(=O)(=O)OC(C)=C3)nn2)cc1 [Compound 59]	> 1000
CC1=CC(OCc2cn(Cc3ccccc3)nn2)=NS(=O)(=O)O1 [Compound 60]	> 100

The compounds below were run against hCA IX (Homo sapiens, UniProt Q16790) (assay: CA inhibition, stopped-flow CO2 hydrase assay, hCA IX). Conditions: not given.
Format: biochemical
Protocol: as §1

SMILES	Ki	inhibitory activity against hCA IX, in words
O=C1c2ccccc2S(=O)(=O)N1Cc1cn(-c2ccccc2)nn1 [Compound 41]	> 1000 µM	
O=C1c2ccccc2S(=O)(=O)N1Cc1cn(Cc2ccccc2)nn1 [Compound 46]	20.9 µM and 7.4 µM	
O=C(O)c1ccccc1S(=O)(=O)NCc1cn(-c2ccccc2)nn1 [Compound 47]		ineffective
Cc1ccc(-n2cc(CNS(=O)(=O)c3ccccc3C(=O)O)nn2)cc1 [Compound 48]		ineffective

Same assay, conditions: Table 1, saccharin-based derivatives; recombinant enzyme, 15 min preincubation, pH 7.5

SMILES	Ki [µM]
CC(C)c1ccc(N2C(=O)c3ccccc3S2(=O)=O)cc1 [Compound 39]	> 1000
COc1ccc(N2C(=O)c3ccccc3S2(=O)=O)cc1 [Compound 40]	> 1000
O=C1c2ccccc2S(=O)(=O)N1Cc1cn(-c2ccccc2)nn1 [Compound 41]	> 1000
O=C1c2ccccc2S(=O)(=O)N1Cc1cn(-c2ccc(Cl)cc2)nn1 [Compound 42]	759
O=C1c2ccccc2S(=O)(=O)N1Cc1cn(-c2ccc(Br)cc2)nn1 [Compound 43]	538
Cc1ccc(-n2cc(CN3C(=O)c4ccccc4S3(=O)=O)nn2)cc1 [Compound 44]	670
COc1ccc(-n2cc(CN3C(=O)c4ccccc4S3(=O)=O)nn2)cc1 [Compound 45]	666
O=C1c2ccccc2S(=O)(=O)N1Cc1cn(Cc2ccccc2)nn1 [Compound 46]	20.9
O=C(O)c1ccccc1S(=O)(=O)NCc1cn(-c2ccccc2)nn1 [Compound 47]	927
Cc1ccc(-n2cc(CNS(=O)(=O)c3ccccc3C(=O)O)nn2)cc1 [Compound 48]	> 1000
O=C(O)c1ccccc1S(=O)(=O)NCc1cn(Cc2ccccc2)nn1 [Compound 49]	1.9

Same assay, conditions: Table 2, acesulfame-based derivatives; mean from 3 different assays, errors ± 5–10%

SMILES	Ki [µM]
CC(C)=CCN1C(=O)C=C(C)OS1(=O)=O [Compound 50]	0.33
CC1=CC(=O)N(Cc2ccccc2)S(=O)(=O)O1 [Compound 51]	2.7
CC1=CC(=O)N(Cc2ccc(Cl)c(Cl)c2)S(=O)(=O)O1 [Compound 52]	0.47
CC1=CC(=O)N(Cc2cn(-c3ccccc3)nn2)S(=O)(=O)O1 [Compound 53]	> 1000
CC1=CC(=O)N(Cc2cn(-c3ccc(Cl)cc3)nn2)S(=O)(=O)O1 [Compound 54]	> 1000
CC1=CC(OCc2cn(-c3ccccc3)nn2)=NS(=O)(=O)O1 [Compound 55]	> 1000
CC1=CC(OCc2cn(-c3ccc(C)cc3)nn2)=NS(=O)(=O)O1 [Compound 56]	> 1000
CC1=CC(OCc2cn(-c3ccc(Cl)cc3)nn2)=NS(=O)(=O)O1 [Compound 57]	> 1000
CC1=CC(OCc2cn(-c3ccc(Br)cc3)nn2)=NS(=O)(=O)O1 [Compound 58]	> 1000
COc1ccc(-n2cc(COC3=NS(=O)(=O)OC(C)=C3)nn2)cc1 [Compound 59]	> 1000
CC1=CC(OCc2cn(Cc3ccccc3)nn2)=NS(=O)(=O)O1 [Compound 60]	1.1

What follows are compounds tested against hCA XII (Homo sapiens, UniProt O43570) (assay: CA inhibition, stopped-flow CO2 hydrase assay, hCA XII). Conditions: not given.
Format: biochemical
Protocol: as §1

Chain of hCA XII (O43570 25-354): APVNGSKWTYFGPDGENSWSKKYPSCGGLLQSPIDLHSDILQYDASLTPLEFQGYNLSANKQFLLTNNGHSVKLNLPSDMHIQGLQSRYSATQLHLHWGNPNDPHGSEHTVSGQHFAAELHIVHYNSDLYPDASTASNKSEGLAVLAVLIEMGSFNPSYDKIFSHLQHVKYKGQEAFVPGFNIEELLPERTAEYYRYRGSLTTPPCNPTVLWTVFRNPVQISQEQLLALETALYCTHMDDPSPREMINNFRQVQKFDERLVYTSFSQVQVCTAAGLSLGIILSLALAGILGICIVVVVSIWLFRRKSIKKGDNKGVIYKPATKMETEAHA

SMILES	Ki [µM]	inhibitory activity against hCA XII, in words
O=C1c2ccccc2S(=O)(=O)N1Cc1cn(-c2ccccc2)nn1 [Compound 41]	> 1000	
O=C1c2ccccc2S(=O)(=O)N1Cc1cn(Cc2ccccc2)nn1 [Compound 46]	7.4	
O=C(O)c1ccccc1S(=O)(=O)NCc1cn(-c2ccccc2)nn1 [Compound 47]		ineffective
Cc1ccc(-n2cc(CNS(=O)(=O)c3ccccc3C(=O)O)nn2)cc1 [Compound 48]		ineffective

Same assay, conditions: Table 1, saccharin-based derivatives; recombinant enzyme, 15 min preincubation, pH 7.5

SMILES	Ki [µM]
CC(C)c1ccc(N2C(=O)c3ccccc3S2(=O)=O)cc1 [Compound 39]	> 1000
COc1ccc(N2C(=O)c3ccccc3S2(=O)=O)cc1 [Compound 40]	> 1000
O=C1c2ccccc2S(=O)(=O)N1Cc1cn(-c2ccccc2)nn1 [Compound 41]	> 1000
O=C1c2ccccc2S(=O)(=O)N1Cc1cn(-c2ccc(Cl)cc2)nn1 [Compound 42]	> 1000
O=C1c2ccccc2S(=O)(=O)N1Cc1cn(-c2ccc(Br)cc2)nn1 [Compound 43]	> 1000
Cc1ccc(-n2cc(CN3C(=O)c4ccccc4S3(=O)=O)nn2)cc1 [Compound 44]	> 1000
COc1ccc(-n2cc(CN3C(=O)c4ccccc4S3(=O)=O)nn2)cc1 [Compound 45]	> 1000
O=C(O)c1ccccc1S(=O)(=O)NCc1cn(-c2ccccc2)nn1 [Compound 47]	> 1000
Cc1ccc(-n2cc(CNS(=O)(=O)c3ccccc3C(=O)O)nn2)cc1 [Compound 48]	> 1000
O=C(O)c1ccccc1S(=O)(=O)NCc1cn(Cc2ccccc2)nn1 [Compound 49]	4.5

Same assay, conditions: Table 2, acesulfame-based derivatives; mean from 3 different assays, errors ± 5–10%

SMILES	Ki [µM]
CC(C)=CCN1C(=O)C=C(C)OS1(=O)=O [Compound 50]	0.24
CC1=CC(=O)N(Cc2ccccc2)S(=O)(=O)O1 [Compound 51]	0.27
CC1=CC(=O)N(Cc2ccc(Cl)c(Cl)c2)S(=O)(=O)O1 [Compound 52]	2
CC1=CC(=O)N(Cc2cn(-c3ccccc3)nn2)S(=O)(=O)O1 [Compound 53]	> 1000
CC1=CC(=O)N(Cc2cn(-c3ccc(Cl)cc3)nn2)S(=O)(=O)O1 [Compound 54]	> 1000
CC1=CC(OCc2cn(-c3ccccc3)nn2)=NS(=O)(=O)O1 [Compound 55]	> 1000
CC1=CC(OCc2cn(-c3ccc(C)cc3)nn2)=NS(=O)(=O)O1 [Compound 56]	> 1000
CC1=CC(OCc2cn(-c3ccc(Cl)cc3)nn2)=NS(=O)(=O)O1 [Compound 57]	> 1000
CC1=CC(OCc2cn(-c3ccc(Br)cc3)nn2)=NS(=O)(=O)O1 [Compound 58]	> 1000
COc1ccc(-n2cc(COC3=NS(=O)(=O)OC(C)=C3)nn2)cc1 [Compound 59]	> 1000
CC1=CC(OCc2cn(Cc3ccccc3)nn2)=NS(=O)(=O)O1 [Compound 60]	> 100
